Assay results reported in ChEMBL document CHEMBL4725331, “An investigative study of antitumor properties of a novel thiazolo[4,5-d]pyrimidine small molecule revealing superior antitumor activity with CDK1 selectivity and potent pro-apoptotic properties” (Bioorg Med Chem, 2020).
pIC50: −log10 of the molar value.

What was measured:
NCI-H460 = experiment: Antiproliferative activity against human NCI-H460 cells assessed as inhibition of cell growth at 10 uM measured after 48 hrs by SRB assay relative to control; format: functional
NCI-H522 [1] = experiment: Antiproliferative activity against human NCI-H522 cells assessed as inhibition of cell growth at 10 uM measured after 48 hrs by SRB assay relative to control; format: functional
HCC 2998 = experiment: Antiproliferative activity against human HCC 2998 cells assessed as inhibition of cell growth at 10 uM measured after 48 hrs by SRB assay relative to control; format: functional
HCT-116 [2] = experiment: Antiproliferative activity against human HCT-116 cells assessed as inhibition of cell growth at 10 uM measured after 48 hrs by SRB assay relative to control; format: functional
SW-620 = experiment: Antiproliferative activity against human SW-620 cells assessed as inhibition of cell growth at 10 uM measured after 48 hrs by SRB assay relative to control; format: functional
SF-268 [3] = experiment: Antiproliferative activity against human SF-268 cells assessed as inhibition of cell growth at 10 uM measured after 48 hrs by SRB assay relative to control; format: functional
SF-539 = experiment: Antiproliferative activity against human SF-539 cells assessed as inhibition of cell growth at 10 uM measured after 48 hrs by SRB assay relative to control; format: functional
MDA-MB-435 = experiment: Antiproliferative activity against human MDA-MB-435 cells assessed as inhibition of cell growth at 10 uM measured after 48 hrs by SRB assay relative to control; format: functional
UACC-62 = experiment: Antiproliferative activity against human UACC-62 cells assessed as inhibition of cell growth at 10 uM measured after 48 hrs by SRB assay relative to control; format: functional
TK-10 = experiment: Antiproliferative activity against human TK-10 cells assessed as inhibition of cell growth at 10 uM measured after 48 hrs by SRB assay relative to control; format: functional
T47D = experiment: Antiproliferative activity against human T47D cells assessed as inhibition of cell growth at 10 uM measured after 48 hrs by SRB assay relative to control; format: functional
HL-60(TB) = experiment: Antiproliferative activity against human HL-60(TB) cells assessed as inhibition of cell growth measured after 48 hrs by SRB assay; format: functional
A549 = experiment: Antiproliferative activity against human A549 cells assessed as inhibition of cell growth measured after 48 hrs by SRB assay; format: functional
NCI-H522 [4] = experiment: Antiproliferative activity against human NCI-H522 cells assessed as inhibition of cell growth measured after 48 hrs by SRB assay; format: functional
HOP-92 = experiment: Antiproliferative activity against human HOP-92 cells assessed as inhibition of cell growth measured after 48 hrs by SRB assay; format: functional
KM12 = experiment: Antiproliferative activity against human KM12 cells assessed as inhibition of cell growth measured after 48 hrs by SRB assay; format: functional
SF-295 = experiment: Antiproliferative activity against human SF-295 cells assessed as inhibition of cell growth measured after 48 hrs by SRB assay; format: functional
SF-268 [5] = experiment: Antiproliferative activity against human SF-268 cells assessed as inhibition of cell growth measured after 48 hrs by SRB assay; format: functional
LOX IMVI = experiment: Antiproliferative activity against human LOX IMVI cells assessed as inhibition of cell growth measured after 48 hrs by SRB assay; format: functional
Malme-3M = experiment: Antiproliferative activity against human Malme-3M cells assessed as inhibition of cell growth measured after 48 hrs by SRB assay; format: functional
UACC-257 = experiment: Antiproliferative activity against human UACC-257 cells assessed as inhibition of cell growth measured after 48 hrs by SRB assay; format: functional
IGROV-1 = experiment: Antiproliferative activity against human IGROV-1 cells assessed as inhibition of cell growth measured after 48 hrs by SRB assay; format: functional
OVCAR-3 = experiment: Antiproliferative activity against human OVCAR-3 cells assessed as inhibition of cell growth measured after 48 hrs by SRB assay; format: functional
OVCAR-8 = experiment: Antiproliferative activity against human OVCAR-8 cells assessed as inhibition of cell growth measured after 48 hrs by SRB assay; format: functional
NCI/ADR-RES = experiment: Antiproliferative activity against human NCI/ADR-RES cells assessed as inhibition of cell growth measured after 48 hrs by SRB assay; format: functional
A498 = experiment: Antiproliferative activity against human A498 cells assessed as inhibition of cell growth measured after 48 hrs by SRB assay; format: functional
DU-145 = experiment: Antiproliferative activity against human DU-145 cells assessed as inhibition of cell growth measured after 48 hrs by SRB assay; format: functional
BT-549 = experiment: Antiproliferative activity against human BT-549 cells assessed as inhibition of cell growth measured after 48 hrs by SRB assay; format: functional
WI-38 [6] = experiment: Cytotoxicity against human WI-38 cells assessed as reduction in cell viability after 48 hrs by MTT assay; format: cell-based; conditions: WI-38, 48 h
HCT-116 [7] = experiment: Cell cycle arrest in human HCT-116 cells assessed as accumulation in G0/G1 phase at IC50 concentration incubated for 48 hrs by propidium iodide staining based flow cytometry analysis (reference value: 42.5 %); format: functional
HCT-116 [8] = experiment: Cell cycle arrest in human HCT-116 cells assessed as accumulation in G2/M phase phase at IC50 concentration incubated for 48 hrs by propidium iodide staining based flow cytometry analysis (reference value: 13.75 %); format: functional
WI-38 [9] = experiment: Cell cycle arrest in human WI-38 cells assessed as accumulation in G0/G1 phase at IC50 concentration incubated for 48 hrs by propidium iodide staining based flow cytometry analysis (reference value: 57.68 %); conditions: wi-38, 48 h
HCT-116 [10] = experiment: Induction of apoptosis in human HCT116 cells assessed as up regulation of cytochrome C expression by RT-PCR analysis relative to untreated control; format: functional
HCT-116 [11] = experiment: Induction of apoptosis in human HCT116 cells assessed as up regulation of caspase-3 expression by RT-PCR analysis relative to untreated control; format: functional
[12] = read-out: LC50 (the source's name)

`COc1ccc(-n2c(=S)sc3c(Cl)nc(C)nc32)c(OC)c1` showed an inhibition at 10 µM (NCI-H460) greater than 50%, an inhibition at 10 µM (NCI-H522 [1]) greater than 50% and an inhibition at 10 µM (HCC 2998) greater than 50%. It also gave an inhibition at 10 µM (HCT-116 [2]) greater than 50%, an inhibition at 10 µM (SW-620) greater than 50% and an inhibition at 10 µM (SF-268 [3]) greater than 50%. The inhibition at 10 µM (SF-539) was greater than 50%, the inhibition at 10 µM (MDA-MB-435) was greater than 50% and the inhibition at 10 µM (UACC-62) was greater than 50%. It also gave an inhibition at 10 µM (TK-10) greater than 50%, an inhibition at 10 µM (T47D) greater than 50% and a GI50 (HL-60(TB)) of 1.41 µM. For the same compound, the TGI (HL-60(TB)) was 5.89 µM, the CC50 (HL-60(TB); [12]) was greater than 100 µM and the GI50 (A549) was 4.47 µM. It also gave a TGI (A549) of 15.8 µM, a CC50 (A549; [12]) of 40.7 µM and a GI50 (NCI-H522 [4]) of 1.82 µM. It also gave a TGI (NCI-H522 [4]) of 3.89 µM, a CC50 (NCI-H522 [4]; [12]) of 8.32 µM and a GI50 (HOP-92) of 2.04 µM. The TGI (HOP-92) was 8.51 µM, the CC50 (HOP-92; [12]) was 31.6 µM and the GI50 (KM12) was 3.31 µM. It also gave a TGI (KM12) of 11.5 µM, a CC50 (KM12; [12]) of 37.1 µM and a GI50 (SF-295) of 7.08 µM. It also gave a TGI (SF-295) of 19.9 µM, a CC50 (SF-295; [12]) of 46.8 µM and a GI50 (SF-268 [5]) of 2.19 µM. It also gave a TGI (SF-268 [5]) of 5.25 µM, a CC50 (SF-268 [5]; [12]) of 17 µM and a GI50 (LOX IMVI) of 1.7 µM. The TGI (LOX IMVI) was 3.16 µM, the CC50 (LOX IMVI; [12]) was 6.03 µM and the GI50 (Malme-3M) was 2.24 µM. It also gave a TGI (Malme-3M) of 6.17 µM, a CC50 (Malme-3M; [12]) of 27.5 µM and a GI50 (UACC-257) of 2.34 µM. The TGI (UACC-257) was 5.62 µM, the CC50 (UACC-257; [12]) was 18.2 µM and the GI50 (IGROV-1) was 1.95 µM. For the same compound, the TGI (IGROV-1) was 3.98 µM, the CC50 (IGROV-1; [12]) was 8.32 µM and the GI50 (OVCAR-3) was 1.78 µM. For the same compound, the TGI (OVCAR-3) was 3.24 µM, the CC50 (OVCAR-3; [12]) was 5.89 µM and the GI50 (OVCAR-8) was 2.69 µM. For the same compound, the TGI (OVCAR-8) was 7.41 µM, the CC50 (OVCAR-8; [12]) was 40.7 µM and the GI50 (NCI/ADR-RES) was 13.2 µM. It also gave a TGI (NCI/ADR-RES) of 72.4 µM, a CC50 (NCI/ADR-RES; [12]) greater than 100 µM and a GI50 (A498) of 11.5 µM. For the same compound, the TGI (A498) was 24 µM, the CC50 (A498; [12]) was 49 µM and the GI50 (DU-145) was 1.86 µM. For the same compound, the TGI (DU-145) was 3.24 µM, the CC50 (DU-145; [12]) was 5.75 µM and the GI50 (BT-549) was 2 µM. The TGI (BT-549) was 4.27 µM, the CC50 (BT-549; [12]) was 9.12 µM and the pIC50 (WI-38 [6]) was 4.66. It also gave an Activity (HCT-116 [7]) of 22.42%, an Activity (HCT-116 [8]) of 29.82% and an Activity (WI-38 [9]) of 54.45%. For the same compound, the “fold change (FC)” value (HCT-116 [10]) was 8.02 and the “fold change (FC)” value (HCT-116 [11]) was 11.2.
